Where “and” joins values, the source holds several entries; their conditions need not be identical. Equal values may be shown once.
Tests used:
subjects with cGVHD = test: Example 2: 7-day LSS summary score; format: in vivo, human; details: for Clinically significant improvement from baseline (LSS), Overall: decrease ≥7 points in LSS score, mITT population
Procedure: (§1) All responses were assessed by the study site investigators.

[1] = Example 2: safety (AE, SAE, relative dose intensity); format: in vivo
Procedure: as §1

subjects with BOS = test: Example 3: Lee Symptom Scale lung score in BOS; format: in vivo, human
Description: Following the methodology used for the LSS, we identified a 10-point difference (half a standard deviation from baseline scores) as being a clinically meaningful organ-specific change in this dataset. (Lee S et al. Development and validation of a scale to measure symptoms of chronic graft-versus-host disease. Biol Blood Marrow Transplant 2002; 8 (8): 444-452; Teh C et al. Reliability and Validity of the Modified 7-Day Lee Chronic Graft-versus-Host Disease Symptom Scale. Biol Blood Marrow Transplant 2020; 26 (3): 562-567.) Forty subjects (68%) experienced a clinically meaningful improvement (10-point reduction) in the LSS lung score.

CC(C)NC(=O)COc1cccc(-c2nc(Nc3ccc4[nH]ncc4c3)c3ccccc3n2)c1 [Belumosudil, 2-{3-[4-(1H-indazol-5-ylamino)-2-quinazolinyl]phenoxy}-N-(propan-2-yl) acetamide]
Clinically meaningful improvement in 7-day LSS summary score (subjects with cGVHD; 200 mg daily, nonresponders): 29% | Clinically meaningful improvement in 7-day LSS summary score (subjects with cGVHD; 200 mg daily, responders): 69% | Clinically meaningful improvement in 7-day LSS summary score (subjects with cGVHD; 200 mg twice daily, nonresponders): 33% | Clinically meaningful improvement in 7-day LSS summary score (subjects with cGVHD; 200 mg twice daily, responders): 71% | Clinically significant improvement from baseline (LSS), Overall (subjects with cGVHD; 200 mg daily (n = 66)): 39 (59) n (%) | Clinically significant improvement from baseline (LSS), Overall (subjects with cGVHD; 200 mg twice daily (n = 66)): 41 (62) n (%) | ALT increased ([1]; 200 mg daily (n = 66)): 4 (6) n (%) | AST increased ([1]; 200 mg daily (n = 66)): 5 (8) n (%) | Any AE ([1]; 200 mg daily (n = 66)): 65 (99) n (%) | Bilirubin conjugated increased ([1]; 200 mg daily (n = 66)): 1 (2) n (%) | Blood alkaline phosphatase increased ([1]; 200 mg daily (n = 66)): 4 (6) n (%) | Cough, all grades ([1]; 200 mg daily (n = 66)): 20 (30) n (%) | Deaths ([1]; 200 mg daily (n = 66)): 8 (12) n (%) | Diarrhea, all grades ([1]; 200 mg daily (n = 66)): 23 (35) n (%) | Drug-related AEs ([1]; 200 mg daily (n = 66)): 49 (74) n (%) | Drug-related SAEs ([1]; 200 mg daily (n = 66)): 5 (8) n (%) | Dyspnea, all grades ([1]; 200 mg daily (n = 66)): 21 (32) n (%) | Fatigue, all grades ([1]; 200 mg daily (n = 66)): 30 (46) n (%) | GGT increased ([1]; 200 mg daily (n = 66)): 6 (9) n (%) | Grade ≥3 AEs ([1]; 200 mg daily (n = 66)): 37 (56) n (%) | Headache, all grades ([1]; 200 mg daily (n = 66)): 13 (20) n (%) | Hyperglycemia, Grade ≥3 ([1]; 200 mg daily (n = 66)): 3 (5) n (%) | Hypertension, Grade ≥3 ([1]; 200 mg daily (n = 66)): 4 (6) n (%) | Hypoalbuminemia ([1]; 200 mg daily (n = 66)): 2 (3) n (%) | LFT increased ([1]; 200 mg daily (n = 66)): 1 (2) n (%) | Liver-related AEs ([1]; 200 mg daily (n = 66)): 12 (18) n (%) | Muscle spasms, all grades ([1]; 200 mg daily (n = 66)): 13 (20) n (%) | Nausea, all grades ([1]; 200 mg daily (n = 66)): 23 (35) n (%) | Peripheral edema, all grades ([1]; 200 mg daily (n = 66)): 17 (26) n (%) | Pneumonia, Grade ≥3 ([1]; 200 mg daily (n = 66)): 6 (9) n (%) | SAEs ([1]; 200 mg daily (n = 66)): 27 (41) n (%) | Transaminases increased ([1]; 200 mg daily (n = 66)): 1 (2) n (%) | Upper respiratory tract infection, all grades ([1]; 200 mg daily (n = 66)): 17 (26) n (%) | Vomiting, all grades ([1]; 200 mg daily (n = 66)): 18 (27) n (%) | ALT increased ([1]; 200 mg twice daily (n = 66)): 7 (11) n (%) | AST increased ([1]; 200 mg twice daily (n = 66)): 8 (12) n (%) | Any AE ([1]; 200 mg twice daily (n = 66)): 66 (100) n (%) | Bilirubin conjugated increased ([1]; 200 mg twice daily (n = 66)): 0 n (%) | Blood alkaline phosphatase increased ([1]; 200 mg twice daily (n = 66)): 6 (9) n (%) | Cough, all grades ([1]; 200 mg twice daily (n = 66)): 17 (26) n (%) | Deaths ([1]; 200 mg twice daily (n = 66)): 6 (9) n (%) | Diarrhea, all grades ([1]; 200 mg twice daily (n = 66)): 21 (32) n (%) | Drug-related AEs ([1]; 200 mg twice daily (n = 66)): 40 (61) n (%) | Drug-related SAEs ([1]; 200 mg twice daily (n = 66)): 2 (3) n (%) | Dyspnea, all grades ([1]; 200 mg twice daily (n = 66)): 12 (18) n (%) | Fatigue, all grades ([1]; 200 mg twice daily (n = 66)): 20 (30) n (%) | GGT increased ([1]; 200 mg twice daily (n = 66)): 10 (15) n (%) | Grade ≥3 AEs ([1]; 200 mg twice daily (n = 66)): 34 (52) n (%) | Headache, all grades ([1]; 200 mg twice daily (n = 66)): 18 (27) n (%) | Hyperglycemia, Grade ≥3 ([1]; 200 mg twice daily (n = 66)): 3 (5) n (%) | Hypertension, Grade ≥3 ([1]; 200 mg twice daily (n = 66)): 4 (6) n (%) | Hypoalbuminemia ([1]; 200 mg twice daily (n = 66)): 2 (3) n (%) | LFT increased ([1]; 200 mg twice daily (n = 66)): 0 n (%) | Liver-related AEs ([1]; 200 mg twice daily (n = 66)): 19 (29) n (%) | Muscle spasms, all grades ([1]; 200 mg twice daily (n = 66)): 13 (20) n (%) | Nausea, all grades ([1]; 200 mg twice daily (n = 66)): 18 (27) n (%) | Peripheral edema, all grades ([1]; 200 mg twice daily (n = 66)): 13 (20) n (%) | Pneumonia, Grade ≥3 ([1]; 200 mg twice daily (n = 66)): 4 (6) n (%) | SAEs ([1]; 200 mg twice daily (n = 66)): 23 (35) n (%) | Transaminases increased ([1]; 200 mg twice daily (n = 66)): 1 (2) n (%) | Upper respiratory tract infection, all grades ([1]; 200 mg twice daily (n = 66)): 18 (27) n (%) | Vomiting, all grades ([1]; 200 mg twice daily (n = 66)): 10 (15) n (%) | ALT increased ([1]; Total (N = 132)): 11 (8) n (%) | AST increased ([1]; Total (N = 132)): 13 (10) n (%) | Any AE ([1]; Total (N = 132)): 131 (99) n (%) | Bilirubin conjugated increased ([1]; Total (N = 132)): 1 (1) n (%) | Blood alkaline phosphatase increased ([1]; Total (N = 132)): 10 (8) n (%) | Cough, all grades ([1]; Total (N = 132)): 37 (28) n (%) | Diarrhea, all grades ([1]; Total (N = 132)): 44 (33) n (%) | Drug-related AEs ([1]; Total (N = 132)): 89 (67) n (%) | Drug-related SAEs ([1]; Total (N = 132)): 7 (5) n (%) | Dyspnea, all grades ([1]; Total (N = 132)): 33 (25) n (%) | Fatigue, all grades ([1]; Total (N = 132)): 50 (38) n (%) | GGT increased ([1]; Total (N = 132)): 16 (12) n (%) | Grade ≥3 AEs ([1]; Total (N = 132)): 71 (54) n (%) | Headache, all grades ([1]; Total (N = 132)): 31 (24) n (%) | Hyperglycemia, Grade ≥3 ([1]; Total (N = 132)): 6 (5) n (%) | Hypertension, Grade ≥3 ([1]; Total (N = 132)): 8 (6) n (%) | Hypoalbuminemia ([1]; Total (N = 132)): 4 (3) n (%) | LFT increased ([1]; Total (N = 132)): 1 (1) n (%) | Liver-related AEs ([1]; Total (N = 132)): 31 (24) n (%) | Muscle spasms, all grades ([1]; Total (N = 132)): 26 (20) n (%) | Nausea, all grades ([1]; Total (N = 132)): 41 (31) n (%) | Peripheral edema, all grades ([1]; Total (N = 132)): 30 (23) n (%) | Pneumonia, Grade ≥3 ([1]; Total (N = 132)): 10 (8) n (%) | SAEs ([1]; Total (N = 132)): 50 (38) n (%) | Transaminases increased ([1]; Total (N = 132)): 2 (2) n (%) | Upper respiratory tract infection, all grades ([1]; Total (N = 132)): 35 (27) n (%) | Vomiting, all grades ([1]; Total (N = 132)): 28 (21) n (%) | Deaths ([1]; Total (N = 132), six died during LTFU (>28 days after last dose)): 14 (11) n (%) | Discontinued because of overall AEs ([1]; in vivo): 21% | Discontinued because of possible drug-related AEs ([1]; in vivo): 12% | Grade 3 or 4 hyperglycemia ([1]; in vivo): 5% | Grade 3 or 4 hypertension ([1]; in vivo): 6% | Grade 3 or 4 pneumonia ([1]; in vivo): 8% | Grade ≥3 anemia ([1]; in vivo): 3% | Grade ≥3 cytopenias ([1]; in vivo): < 4% | Grade ≥3 neutropenia ([1]; in vivo): 2% | Grade ≥3 thrombocytopenia ([1]; in vivo): 2% | Increased GGT (liver-related AE) ([1]; in vivo): 12% | Median RDI ([1]; in vivo): 99.7% | SAE pneumonia, subjects ([1]; in vivo): 7% | Subjects who died during the study ([1]; in vivo): Fourteen | Subjects who received an RDI >95% ([1]; in vivo): Eighty-one | Subjects with >1 SAE ([1]; in vivo): Thirty eight | Subjects with increased liver function tests (LFTs) ([1]; in vivo): Twenty-four | Cases of Epstein-Barr viremia that required treatment ([1]; unrelated to belumosudil): 1 case | Cases of cytomegalovirus (CMV) reactivation ([1]; unrelated to belumosudil): 1 case | Cases of cytomegalovirus (CMV) reactivation ([1]; unrelated to belumosudil, listed as belumosudil): one | Subjects with clinically meaningful improvement (10-point reduction) in LSS lung score (subjects with BOS; 59 subjects): 68% | Clinically meaningful improvement in LSS lung score (subjects with BOS; baseline NIH lung score 1): 66% | Clinically meaningful improvement in LSS lung score (subjects with BOS; baseline NIH lung score 2): 61% | Clinically meaningful improvement in LSS lung score (subjects with BOS; baseline NIH lung score 3): 100% | Clinically meaningful improvement in LSS lung score (subjects with BOS; non-responders): 68% and 67.5% | Clinically meaningful improvement in LSS lung score (subjects with BOS; subjects with 35% best improvement in % FEV1): 61% | Clinically meaningful improvement in LSS lung score (subjects with BOS; subjects with <5% best improvement in % FEV1): 69%
